Laboratory results from patent publication US20070128217A1 (priority 2003, published 2007).

Key:
[1] = tested on: antibodies in sera from SARS patients (sera 1a, 1b, 2, 6, 37, 62, London, SARS-yellow, SARS-green); type: binding, human; set-up: Binding of serum 6 to linear peptides of protein X1 of SARS-CoV Urbani / Binding of serum 37 to linear peptides of protein X1 of SARS-CoV Urbani / Binding of serum 6 to looped/cyclic peptide (PEPSCAN-ELISA) / Binding of serum 37 to looped/cyclic peptide (PEPSCAN-ELISA) / Binding of serum 37 to looped/cyclic peptides of protein X1 of SARS-CoV Urbani / Binding of serum 6 to linear peptides of protein X2 / Binding of serum 37 to linear peptides of protein X2 / Binding of serum 37 to looped/cyclic peptides of protein X2 of SARS-CoV Urbani / Binding of serum 6 to linear peptides of protein M of SARS-CoV Urbani / Binding of serum 37 to linear peptides of protein M of SARS-CoV Urbani / Binding of serum 6 to looped/cyclic peptides of protein M of SARS-CoV Urbani / Binding of serum 37 to looped/cyclic peptides of protein M of SARS-CoV Urbani / Binding of serum 6 to linear peptides of protein X3 of SARS-CoV Urbani / Binding of serum 37 to linear peptides of protein X3 of SARS-CoV Urbani / Binding of serum 37 to looped/cyclic peptides of protein X3 of SARS-CoV Urbani / Binding of serum 6 to linear peptides of protein X4 of SARS-CoV Urbani / Binding of serum 37 to linear peptides of protein X4 of SARS-CoV Urbani / Binding of serum 37 to looped/cyclic peptides of protein X4 of SARS-CoV Urbani / Binding of serum 6 to linear peptides of protein X5 of SARS-CoV Urbani / Binding of serum 37 to linear peptides of protein X5 of SARS-CoV Urbani / Binding of serum 37 to looped/cyclic peptides of protein X5 of SARS-CoV Urbani / Binding of serum 6 to linear peptides of protein N of SARS-CoV Urbani / Binding of serum 37 to linear peptides of protein N of SARS-CoV Urbani / Binding of serum 6 to linear peptide (PEPSCAN-ELISA) / Binding of serum 1a to looped/cyclic peptides of protein N of SARS-CoV Urbani / Binding of serum 1b to looped/cyclic peptides of protein N of SARS-CoV Urbani / Binding of serum 2 to looped/cyclic peptides of protein N of SARS-CoV Urbani / Binding of serum 6 to looped/cyclic peptides of protein N of SARS-CoV Urbani / Binding of serum 37 to looped/cyclic peptides of protein N of SARS-CoV Urbani / Binding of serum 62 to looped/cyclic peptides of protein N of SARS-CoV Urbani / Binding of serum London to looped/cyclic peptides of protein N of SARS-CoV Urbani / Binding of serum SARS-green to looped/cyclic peptides of protein N of SARS-CoV Urbani: unit not given here
[2] = tested on: control sera (pooled serum of ten healthy LUMC hospital workers; commercial negative donor pooled serum from the Dutch bloodbank); type: binding, human; set-up: Binding of Control serum LUMC to linear peptides / Binding of Control serum Blood-bank to linear peptides / Binding of Control serum LUMC to looped peptides / Binding of Control Serum Blood-Bank to Looped peptides / Binding of Control serum LUMC to linear peptides of the protein M of SARS-CoV Urbani / Binding of Control serum Blood-bank to linear peptides of the protein M of SARS-CoV Urbani / Binding of Control serum LUMC to looped peptides of the protein M of SARS-CoV Urbani / Binding of Control Serum Blood-Bank to Looped peptides of the protein M of SARS-CoV Urbani: unit not given here
[3] = tested on: rabbit serum obtained by immunizing a rabbit with the SARS-CoV strain Frankfurt 1; type: binding; set-up: Binding of a rabbit serum to linear peptides / Binding of a rabbit serum to looped peptides / Rabbit serum linear peptides / Rabbit serum looped peptides / Binding of a rabbit serum to linear peptides of protein N of SARS-CoV Urbani (Rabbit serum linear peptides) / Binding of a rabbit serum to looped/cyclic peptides of protein N of SARS-CoV Urbani (Rabbit serum looped peptides): unit not given here

## YFLQCINACRIIMRC
[1]
  Binding of serum 1a to linear peptides of protein X1 of SARS-CoV Urbani: 0.7
  Binding of serum 1a to looped/cyclic peptide (PEPSCAN-ELISA): 0.6
  Binding of serum 1b to linear peptides of protein X1 of SARS-CoV Urbani: 0.6
  Binding of serum 1b to looped/cyclic peptide (PEPSCAN-ELISA): 0.4
  Binding of serum 2 to linear peptides of protein X1 of SARS-CoV Urbani: 0.5
  Binding of serum 2 to looped/cyclic peptide (PEPSCAN-ELISA): 0.4
  Binding of serum 6 to linear peptides of protein X1 of SARS-CoV Urbani: 0.5
  Binding of serum 6 to looped/cyclic peptide (PEPSCAN-ELISA): 1.6
  Binding of serum 37 to linear peptides of protein X1 of SARS-CoV Urbani: 0.6
  Binding of serum 37 to looped/cyclic peptide (PEPSCAN-ELISA): 0.5
  Binding of serum 62 to linear peptides of protein X1 of SARS-CoV Urbani: 0.6
  Binding of serum 62 to looped/cyclic peptide (PEPSCAN-ELISA): 0.6
  Binding of serum London to linear peptides of protein X1 of SARS-CoV Urbani: 0.2
  Binding of serum London to looped/cyclic peptide (PEPSCAN-ELISA): 1.6
  Binding of serum SARS-green to linear peptides of protein X1 of SARS-CoV Urbani: 0.3
  Binding of serum SARS-green to looped/cyclic peptide (PEPSCAN-ELISA): 0.2
  Binding of serum SARS-yellow to linear peptides of protein X1 of SARS-CoV Urbani: 0.3
  Binding of serum SARS-yellow to looped/cyclic peptide (PEPSCAN-ELISA): 0.6
[2]
  Binding of Control Serum Blood-Bank to Looped peptides: 0.6
  Binding of Control serum Blood-bank to linear peptides: 0.8
  Binding of Control serum LUMC to linear peptides: 0.7
  Binding of Control serum LUMC to looped peptides: 0.6
[3]
  Binding of a rabbit serum to linear peptides: 0.1
  Binding of a rabbit serum to looped peptides: 0.8

## YFTEVYYQLESTQIT
[1]
  Binding of serum 1a to linear peptides of protein X1 of SARS-CoV Urbani: 0.7
  Binding of serum 1a to looped/cyclic peptides of protein X1 of SARS-CoV Urbani: 0.5
  Binding of serum 1b to linear peptides of protein X1 of SARS-CoV Urbani: 0.6
  Binding of serum 1b to looped/cyclic peptides of protein X1 of SARS-CoV Urbani: 0.5
  Binding of serum 2 to linear peptides of protein X1 of SARS-CoV Urbani: 0.4
  Binding of serum 2 to looped/cyclic peptides of protein X1 of SARS-CoV Urbani: 0.3
  Binding of serum 6 to linear peptides of protein X1 of SARS-CoV Urbani: 0.4
  Binding of serum 6 to looped/cyclic peptides of protein X1 of SARS-CoV Urbani: 0.2
  Binding of serum 37 to linear peptides of protein X1 of SARS-CoV Urbani: 0.6
  Binding of serum 37 to looped/cyclic peptides of protein X1 of SARS-CoV Urbani: 0.4
  Binding of serum 62 to linear peptides of protein X1 of SARS-CoV Urbani: 0.6
  Binding of serum 62 to looped/cyclic peptides of protein X1 of SARS-CoV Urbani: 0.4
  Binding of serum London to linear peptides of protein X1 of SARS-CoV Urbani: 0.3
  Binding of serum London to looped/cyclic peptides of protein X1 of SARS-CoV Urbani: 0.2
  Binding of serum SARS-green to linear peptides of protein X1 of SARS-CoV Urbani: 0.3
  Binding of serum SARS-green to looped/cyclic peptides of protein X1 of SARS-CoV Urbani: 0.2
  Binding of serum SARS-yellow to linear peptides of protein X1 of SARS-CoV Urbani: 0.3
  Binding of serum SARS-yellow to looped/cyclic peptides of protein X1 of SARS-CoV Urbani: 0.3
[2]
  Binding of Control Serum Blood-Bank to Looped peptides: 0.4
  Binding of Control serum Blood-bank to linear peptides: 0.4
  Binding of Control serum LUMC to linear peptides: 0.4
  Binding of Control serum LUMC to looped peptides: 0.5
[3]
  Binding of a rabbit serum to linear peptides: 0.1
  Binding of a rabbit serum to looped peptides: 0.4

## YIIKLVFLWLLWPVT
[1]
  Binding of serum 1a to linear peptides of protein M of SARS-CoV Urbani: 0.8
  Binding of serum 1a to looped/cyclic peptides of protein M of SARS-CoV Urbani: 0.8
  Binding of serum 1b to linear peptides of protein M of SARS-CoV Urbani: 0.6
  Binding of serum 1b to looped/cyclic peptides of protein M of SARS-CoV Urbani: 0.8
  Binding of serum 2 to linear peptides of protein M of SARS-CoV Urbani: 0.9
  Binding of serum 2 to looped/cyclic peptides of protein M of SARS-CoV Urbani: 0.6
  Binding of serum 6 to linear peptides of protein M of SARS-CoV Urbani: 0.4
  Binding of serum 6 to looped/cyclic peptides of protein M of SARS-CoV Urbani: 0.8
  Binding of serum 37 to linear peptides of protein M of SARS-CoV Urbani: 0.7
  Binding of serum 37 to looped/cyclic peptides of protein M of SARS-CoV Urbani: 0.7
  Binding of serum 62 to linear peptides of protein M of SARS-CoV Urbani: 0.8
  Binding of serum 62 to looped/cyclic peptides of protein M of SARS-CoV Urbani: 0.7
  Binding of serum London to linear peptides of protein M of SARS-CoV Urbani: 0.3
  Binding of serum London to looped/cyclic peptides of protein M of SARS-CoV Urbani: 0.3
  Binding of serum SARS-green to linear peptides of protein M of SARS-CoV Urbani: 0.4
  Binding of serum SARS-green to looped/cyclic peptides of protein M of SARS-CoV Urbani: 0.4
  Binding of serum SARS-yellow to linear peptides of protein M of SARS-CoV Urbani: 0.1
  Binding of serum SARS-yellow to looped/cyclic peptides of protein M of SARS-CoV Urbani: 0.5
[2]
  Binding of Control Serum Blood-Bank to Looped peptides of the protein M of SARS-CoV Urbani: 0.8
  Binding of Control serum Blood-bank to linear peptides of the protein M of SARS-CoV Urbani: 0.8
  Binding of Control serum LUMC to linear peptides of the protein M of SARS-CoV Urbani: 0.5
  Binding of Control serum LUMC to looped peptides of the protein M of SARS-CoV Urbani: 0.8
[3]
  Rabbit serum linear peptides: 0.4
  Rabbit serum looped peptides: 0.2

## YNTRGNTYSTAWLCA
[1]
  Binding of serum 1a to linear peptides of protein X5 of SARS-CoV Urbani: 0.8
  Binding of serum 1a to looped/cyclic peptides of protein X5 of SARS-CoV Urbani: 0.3
  Binding of serum 1b to linear peptides of protein X5 of SARS-CoV Urbani: 0.6
  Binding of serum 1b to looped/cyclic peptides of protein X5 of SARS-CoV Urbani: 0.2
  Binding of serum 2 to linear peptides of protein X5 of SARS-CoV Urbani: 0.6
  Binding of serum 2 to looped/cyclic peptides of protein X5 of SARS-CoV Urbani: 0.4
  Binding of serum 6 to linear peptides of protein X5 of SARS-CoV Urbani: 0.8
  Binding of serum 6 to looped/cyclic peptides of protein X5 of SARS-CoV Urbani: 0.4
  Binding of serum 37 to linear peptides of protein X5 of SARS-CoV Urbani: 0.7
  Binding of serum 37 to looped/cyclic peptides of protein X5 of SARS-CoV Urbani: 0.0
  Binding of serum 62 to linear peptides of protein X5 of SARS-CoV Urbani: 0.7
  Binding of serum 62 to looped/cyclic peptides of protein X5 of SARS-CoV Urbani: 0.2
  Binding of serum London to linear peptides of protein X5 of SARS-CoV Urbani: 0.8
  Binding of serum London to looped/cyclic peptides of protein X5 of SARS-CoV Urbani: 0.2
  Binding of serum SARS-green to linear peptides of protein X5 of SARS-CoV Urbani: 0.7
  Binding of serum SARS-green to looped/cyclic peptides of protein X5 of SARS-CoV Urbani: 0.2
  Binding of serum SARS-yellow to linear peptides of protein X5 of SARS-CoV Urbani: 0.4
  Binding of serum SARS-yellow to looped/cyclic peptides of protein X5 of SARS-CoV Urbani: 0.6
[2]
  Binding of Control Serum Blood-Bank to Looped peptides: 0.5
  Binding of Control serum Blood-bank to linear peptides: 0.7
  Binding of Control serum LUMC to linear peptides: 0.6
  Binding of Control serum LUMC to looped peptides: 0.5
[3]
  Rabbit serum linear peptides: 0.7
  Rabbit serum looped peptides: 0.0
